Patent US20240092835A1, “NOVEL PEPTIDES CAPABLE OF ALTERING NK CELL ACTIVITY” (Massachusetts Institute of Technology, priority 2022, published 2024)

Key:
Assay type in all cases: cell-based, human
[1] = system: NKG2A+/NKG2C− NK cells; assay: NK cell activation markers in NKG2A+/NKG2C- NK cells incubated with peptide and K562 expressing HLA-E (inhibition); conditions: NKG2A+/NKG2C- NK cells, K562/HLA-E
Procedure: (§1) A human immortalized myelogenous leukemia cell line (K562), which expresses HLA-E was incubated with novel peptides (Table 1) derived from the human proteome or human cytomegalovirus proteome. […] Controls assessments were also performed using NKG2A−/NKG2C− cells (Tables 10-13). Inhibition was indicated by a decrease in percent cells positive for cell surface markers, while activation was indicated by an increase in percent cells positive for cell surface markers.

[2] = system: NKG2A−/NKG2C+ NK cells; assay: NK cell activation markers in NKG2A-/NKG2C+ NK cells incubated with peptide and K562 expressing HLA-E (activation); conditions: NKG2A-/NKG2C+ NK cells, K562/HLA-E
Procedure: as §1

[3] = system: NKG2A−/NKG2C− NK cells; assay: NK cell activation markers in control NKG2A-/NKG2C- NK cells incubated with peptide and K562 expressing HLA-E
Procedure: as §1

VMAPRTLIL [VMAPRTLIL (LIL), positive control peptide, reference compound]
percentage of CCL3+ NK cells ([1]; Trial 1): 1.59% | percentage of CD107a+ NK cells ([1]; Trial 1): 0.35% | percentage of IFNG+ NK cells ([1]; Trial 1): 0% | percentage of TNF+ NK cells ([1]; Trial 1): 0% | percentage of CCL3+ NK cells ([1]; Trial 2): 14.4% | percentage of CD107a+ NK cells ([1]; Trial 2): 2.73% | percentage of IFNG+ NK cells ([1]; Trial 2): 0.59% | percentage of TNF+ NK cells ([1]; Trial 2): 0.39% | percentage of CCL3+ NK cells ([1]; Trial 3): 4.32% | percentage of CD107a+ NK cells ([1]; Trial 3): 1.95% | percentage of IFNG+ NK cells ([1]; Trial 3): 0.87% | percentage of TNF+ NK cells ([1]; Trial 3): 0.46% | percentage of CCL3+ NK cells ([1]; Trial 4): 0.75% | percentage of CD107a+ NK cells ([1]; Trial 4): 0.77% | percentage of IFNG+ NK cells ([1]; Trial 4): 0.08% | percentage of TNF+ NK cells ([1]; Trial 4): 0.08% | percentage of CCL3+ NK cells ([1]; Trial 5): 1.56% | percentage of CD107a+ NK cells ([1]; Trial 5): 0.56% | percentage of IFNG+ NK cells ([1]; Trial 5): 0.06% | percentage of TNF+ NK cells ([1]; Trial 5): 0.06% | percentage of CCL3+ NK cells ([1]; Trial 6): 0.92% | percentage of CD107a+ NK cells ([1]; Trial 6): 0.92% | percentage of IFNG+ NK cells ([1]; Trial 6): 0.05% | percentage of TNF+ NK cells ([1]; Trial 6): 0.05% | percentage of CCL3+ NK cells ([2]; Trial 1): 76.7% | percentage of CD107+ NK cells ([2]; Trial 1): 74.1% | percentage of IFNG+ NK cells ([2]; Trial 1): 64.1% | percentage of TNF+ NK cells ([2]; Trial 1): 48.5% | percentage of CCL3+ NK cells ([2]; Trial 2): 92% | percentage of CD107+ NK cells ([2]; Trial 2): 87% | percentage of IFNG+ NK cells ([2]; Trial 2): 79.8% | percentage of TNF+ NK cells ([2]; Trial 2): 62.5% | percentage of CCL3+ NK cells ([2]; Trial 3): 85.4% | percentage of CD107+ NK cells ([2]; Trial 3): 85.3% | percentage of IFNG+ NK cells ([2]; Trial 3): 78.1% | percentage of TNF+ NK cells ([2]; Trial 3): 61.4% | percentage of CCL3+ NK cells ([2]; Trial 4): 69% | percentage of CD107+ NK cells ([2]; Trial 4): 73.4% | percentage of IFNG+ NK cells ([2]; Trial 4): 59.7% | percentage of TNF+ NK cells ([2]; Trial 4): 50.4% | percentage of CCL3+ NK cells ([2]; Trial 5): 79.6% | percentage of CD107+ NK cells ([2]; Trial 5): 79.9% | percentage of IFNG+ NK cells ([2]; Trial 5): 72.5% | percentage of TNF+ NK cells ([2]; Trial 5): 66.3% | percentage of CCL3+ NK cells ([2]; Trial 6): 56.6% | percentage of CD107+ NK cells ([2]; Trial 6): 63.2% | percentage of IFNG+ NK cells ([2]; Trial 6): 45.9% | percentage of TNF+ NK cells ([2]; Trial 6): 35.5% | percentage CCL3+ NK cells ([3]; Trial 1): 31.4% | percentage CD107+ NK cells ([3]; Trial 1): 24.4% | percentage TNF+ NK cells ([3]; Trial 1): 3.46% | percentage of IFNG+ NK cells ([3]; Trial 1): 15.5% | percentage CCL3+ NK cells ([3]; Trial 2): 54% | percentage CD107+ NK cells ([3]; Trial 2): 33.4% | percentage TNF+ NK cells ([3]; Trial 2): 7.41% | percentage of IFNG+ NK cells ([3]; Trial 2): 22.8% | percentage CCL3+ NK cells ([3]; Trial 3): 46.1% | percentage CD107+ NK cells ([3]; Trial 3): 43.2% | percentage TNF+ NK cells ([3]; Trial 3): 13.6% | percentage of IFNG+ NK cells ([3]; Trial 3): 36.7% | percentage CCL3+ NK cells ([3]; Trial 4): 30.8% | percentage CD107+ NK cells ([3]; Trial 4): 26.4% | percentage TNF+ NK cells ([3]; Trial 4): 8.21% | percentage of IFNG+ NK cells ([3]; Trial 4): 18.7% | percentage CCL3+ NK cells ([3]; Trial 5): 23.8% | percentage CD107+ NK cells ([3]; Trial 5): 17.9% | percentage TNF+ NK cells ([3]; Trial 5): 4.32% | percentage of IFNG+ NK cells ([3]; Trial 5): 12.1% | percentage CCL3+ NK cells ([3]; Trial 6): 21.4% | percentage CD107+ NK cells ([3]; Trial 6): 19% | percentage TNF+ NK cells ([3]; Trial 6): 3.8% | percentage of IFNG+ NK cells ([3]; Trial 6): 9.39%
